In patent publication US4472304A, “(Amido)N-substituted bleomycins, salts thereof and process for preparation thereof” (Nippon Kayaku Kabushiki Kaisha, priority 1981, dated 1984):

Experiments:
[1] = molecular target: T1, bleomycin-inactivating enzyme (Rattus norvegicus, UniProt P70645); details: rated under conditions where inactivation of bleomycin B2 is 50%; 37° C., 40 minutes; residual activity against M. smegmatis ATCC 607
T1 sequence (P70645 1-454): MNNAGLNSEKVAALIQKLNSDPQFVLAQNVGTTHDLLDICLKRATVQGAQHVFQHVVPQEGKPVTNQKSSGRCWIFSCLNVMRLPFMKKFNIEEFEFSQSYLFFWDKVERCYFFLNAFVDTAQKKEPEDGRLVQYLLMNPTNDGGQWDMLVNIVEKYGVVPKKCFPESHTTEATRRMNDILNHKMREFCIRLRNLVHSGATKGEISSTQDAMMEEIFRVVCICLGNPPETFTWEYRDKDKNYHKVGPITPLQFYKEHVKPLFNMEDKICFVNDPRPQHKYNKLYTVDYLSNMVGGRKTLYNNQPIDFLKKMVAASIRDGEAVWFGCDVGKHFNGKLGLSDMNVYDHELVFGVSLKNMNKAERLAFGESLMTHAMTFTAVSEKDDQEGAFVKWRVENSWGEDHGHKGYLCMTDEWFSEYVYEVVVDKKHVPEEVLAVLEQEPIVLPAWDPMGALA

[2] = system: Mycobacterium smegmatis ATCC 607; experiment: Antimicrobial activity against Mycobacterium smegmatis ATCC 607 (agar plate-cylinder); assay type: cell-based; details: standard bleomycin A2 (copper-free) assumed 1,000 mcg potency/mg
Experimental: (§1) 2. ANT[…] MYC[…] ATCC 607 AND BACILLUS SUBTILIS
(§2) The antimicrobial activity was tested against the captioned test organisms by the method of agar plate-cylinder. The activity was recorded on the assumption that the activity of standard sample of bleomycin A2 (copper-free form) is 1,000 mcg poteney/mg.

Bacillus subtilis = experiment: Antimicrobial activity against Bacillus subtilis (agar plate-cylinder); assay type: cell-based; details: standard bleomycin A2 (copper-free) assumed 1,000 mcg potency/mg
Experimental: as §1, §2

pulmonary fibrosis = experiment: Pulmonary toxicity (pulmonary fibrosis) in mice
[3] = ICR mice, 5 mg/kg i.p. once a day for 10 days, points 0, 1, 2, 4, 6

| SMILES | Resistance of Cu-free compound against inactivating enzyme (degree of inactivation) [1] | Antimicrobial potency of Cu-free compound against Mycobacterium smegmatis ATCC 607 [2] | Antimicrobial potency of Cu-free compound against Bacillus subtilis (Bacillus subtilis) | Incidence: Number of mice with pulmonary fibrosis (%) (pulmonary fibrosis; ICR mice, 5 mg/kg i.p. once a day for 10 days, 5 weeks observation) | Incidence: Number of mice with pulmonary fibrosis (pulmonary fibrosis; ICR mice, 5 mg/kg i.p. once a day for 10 days, 5 weeks observation, mice with fibrosis/total) | Grade: Total score of pulmonary fibrosis/total number of samples (pulmonary fibrosis; [3]) | Grade: Total score of pulmonary fibrosis/total number of samples (%) (pulmonary fibrosis; [3]) | Ratio (by comparison with "Bleomycin Complex") (pulmonary fibrosis; versus Bleomycin Complex) |
| --- | --- | --- | --- | --- | --- | --- | --- | --- |
| CCN(CC)CCCC(C)NC(=O)C(N)CNC(CC(N)=O)c1nc(N)c(C)c(C(=O)NC(C(=O)NC(C)C(O)C(C)C(=O)NC(C(=O)NCCc2nc(-c3nc(C(=O)NCCCNC(C)c4ccccc4)cs3)cs2)C(C)O)C(OC2OC(CO)C(O)C(O)C2OC2OC(CO)C(O)C(OC(N)=O)C2O)c2cnc[nH]2)n1 [Compound 36, 3-((S)-1'-phenylethylamino)propylamino-(amido)N--[4-diethylamino-1-methylbutyl]-BLM] | + +++ | 6061 mcg potency/mg | 3694 mcg potency/mg | – | – | – | – | – |
| CCCCN(CCCC)CCCNC(=O)C(N)CNC(CC(N)=O)c1nc(N)c(C)c(C(=O)NC(C(=O)NC(C)C(O)C(C)C(=O)NC(C(=O)NCCc2nc(-c3nc(C(=O)NCCC[N+](CC)(CC)CCCN(Cc4ccccc4)Cc4ccccc4)cs3)cs2)C(C)O)C(OC2OC(CO)C(O)C(O)C2OC2OC(CO)C(O)C(OC(N)=O)C2O)c2cnc[nH]2)n1 (centres unmarked) [Compound 57, 3-{N,N--diethyl-N--[3-(dibenzylamino)propyl]amino}propylamino-(amido)N--[3-(di-n-butylamino)propyl]-BLM] | +++ + | 25924 mcg potency/mg | 1831 mcg potency/mg | 0% | 0/9 | 0/27 | 0% | 0 |
